Reference: ChEMBL document CHEMBL2176878, “Synthesis and biological characterization of 3-substituted 1H-indoles as ligands of GluN2B-containing N-methyl-D-aspartate receptors. Part 2” (J Med Chem, 2012)

Assays:
[1] = biological target: Glutamate receptor ionotropic, NMDA 2B (Rattus norvegicus) (UniProt Q00960); experiment: Displacement of [3H]ifenprodil from NMDA receptor GluN2B subunit in Wistar rat cerebral cortex at 10 uM after 120 mins; assay type: tissue-based
[2] = biological target: Glutamate NMDA receptor; Grin1/Grin2b (Rattus norvegicus, UniProt P35439+Q00960); experiment: Inhibition of rat NMDA receptor NR1F/NR2B subunit expressed in Xenopus laevis oocytes after 2 days by two-electrode voltage-clamp electrophysiological assay; assay type: cell-based, Oocyte
[3] = biological target: Glutamate receptor ionotropic, NMDA 2B (Mus musculus) (UniProt Q01097); experiment: (§1) Antagonist activity at NMDA receptor GluN2B subunit in FVB mouse CA1 pyramidal neurons assessed as decrease in EPSC amplitude at holding potential of -60 mV at 6 uM measured at 5 mins by patch clamp electrophysiological assay in presence of Mg2+ free ACSF containing CNQX, glycine, bicuculline relative to control; assay type: functional, cell-based; design: scale not given: the % may be the effect or the level left; conditions: Pyramidal neuron
Sequence of Glutamate receptor ionotropic, NMDA 2B (Mus musculus) (Q01097 whole entry): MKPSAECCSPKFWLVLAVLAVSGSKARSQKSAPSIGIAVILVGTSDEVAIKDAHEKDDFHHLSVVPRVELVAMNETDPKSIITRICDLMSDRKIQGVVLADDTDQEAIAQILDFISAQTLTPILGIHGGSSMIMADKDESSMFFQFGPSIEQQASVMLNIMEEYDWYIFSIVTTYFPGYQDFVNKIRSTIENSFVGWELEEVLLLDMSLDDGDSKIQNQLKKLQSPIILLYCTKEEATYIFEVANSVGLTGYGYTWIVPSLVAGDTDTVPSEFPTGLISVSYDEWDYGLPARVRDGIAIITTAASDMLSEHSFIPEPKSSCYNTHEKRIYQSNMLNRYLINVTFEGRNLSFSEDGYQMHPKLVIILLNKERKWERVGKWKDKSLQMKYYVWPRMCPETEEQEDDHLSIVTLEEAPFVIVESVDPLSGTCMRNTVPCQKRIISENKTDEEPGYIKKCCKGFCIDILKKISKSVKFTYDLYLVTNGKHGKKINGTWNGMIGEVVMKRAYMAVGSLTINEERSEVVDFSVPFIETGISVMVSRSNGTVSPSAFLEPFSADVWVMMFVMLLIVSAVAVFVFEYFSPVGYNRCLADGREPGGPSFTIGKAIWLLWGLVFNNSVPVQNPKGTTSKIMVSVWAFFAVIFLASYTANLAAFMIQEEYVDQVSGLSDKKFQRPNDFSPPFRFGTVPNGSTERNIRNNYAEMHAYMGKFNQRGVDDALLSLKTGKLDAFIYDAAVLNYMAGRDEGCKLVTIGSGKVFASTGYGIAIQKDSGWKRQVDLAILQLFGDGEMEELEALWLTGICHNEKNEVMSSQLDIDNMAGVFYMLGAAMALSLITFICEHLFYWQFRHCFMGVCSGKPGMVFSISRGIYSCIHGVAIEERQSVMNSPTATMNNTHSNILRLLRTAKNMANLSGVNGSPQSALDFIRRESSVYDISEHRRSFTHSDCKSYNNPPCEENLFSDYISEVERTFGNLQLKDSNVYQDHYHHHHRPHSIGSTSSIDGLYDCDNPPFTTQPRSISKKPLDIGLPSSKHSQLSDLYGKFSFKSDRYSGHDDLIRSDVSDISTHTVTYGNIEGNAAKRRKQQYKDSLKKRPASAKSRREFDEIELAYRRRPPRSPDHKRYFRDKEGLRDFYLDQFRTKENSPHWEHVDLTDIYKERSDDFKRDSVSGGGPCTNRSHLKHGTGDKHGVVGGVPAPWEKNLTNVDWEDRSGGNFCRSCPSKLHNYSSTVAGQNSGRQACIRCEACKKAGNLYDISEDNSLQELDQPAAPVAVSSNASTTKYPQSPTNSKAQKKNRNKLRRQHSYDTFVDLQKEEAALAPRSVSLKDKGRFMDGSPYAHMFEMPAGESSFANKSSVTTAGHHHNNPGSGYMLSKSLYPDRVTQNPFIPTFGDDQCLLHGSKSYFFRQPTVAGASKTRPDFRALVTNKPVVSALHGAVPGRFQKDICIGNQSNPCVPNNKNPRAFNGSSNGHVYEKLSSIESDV

[4] = Dissociation constant, pKa of the compound; assay type: physicochemical
[5] = biological target: Glutamate receptor ionotropic, NMDA 2B (Rattus norvegicus, UniProt Q00960); experiment: Displacement of [3H]ifenprodil from NMDA receptor GluN2B subunit in Wistar rat cerebral cortex after 120 mins; assay type: tissue-based
Sequence of Glutamate receptor ionotropic, NMDA 2B (Q00960 whole entry): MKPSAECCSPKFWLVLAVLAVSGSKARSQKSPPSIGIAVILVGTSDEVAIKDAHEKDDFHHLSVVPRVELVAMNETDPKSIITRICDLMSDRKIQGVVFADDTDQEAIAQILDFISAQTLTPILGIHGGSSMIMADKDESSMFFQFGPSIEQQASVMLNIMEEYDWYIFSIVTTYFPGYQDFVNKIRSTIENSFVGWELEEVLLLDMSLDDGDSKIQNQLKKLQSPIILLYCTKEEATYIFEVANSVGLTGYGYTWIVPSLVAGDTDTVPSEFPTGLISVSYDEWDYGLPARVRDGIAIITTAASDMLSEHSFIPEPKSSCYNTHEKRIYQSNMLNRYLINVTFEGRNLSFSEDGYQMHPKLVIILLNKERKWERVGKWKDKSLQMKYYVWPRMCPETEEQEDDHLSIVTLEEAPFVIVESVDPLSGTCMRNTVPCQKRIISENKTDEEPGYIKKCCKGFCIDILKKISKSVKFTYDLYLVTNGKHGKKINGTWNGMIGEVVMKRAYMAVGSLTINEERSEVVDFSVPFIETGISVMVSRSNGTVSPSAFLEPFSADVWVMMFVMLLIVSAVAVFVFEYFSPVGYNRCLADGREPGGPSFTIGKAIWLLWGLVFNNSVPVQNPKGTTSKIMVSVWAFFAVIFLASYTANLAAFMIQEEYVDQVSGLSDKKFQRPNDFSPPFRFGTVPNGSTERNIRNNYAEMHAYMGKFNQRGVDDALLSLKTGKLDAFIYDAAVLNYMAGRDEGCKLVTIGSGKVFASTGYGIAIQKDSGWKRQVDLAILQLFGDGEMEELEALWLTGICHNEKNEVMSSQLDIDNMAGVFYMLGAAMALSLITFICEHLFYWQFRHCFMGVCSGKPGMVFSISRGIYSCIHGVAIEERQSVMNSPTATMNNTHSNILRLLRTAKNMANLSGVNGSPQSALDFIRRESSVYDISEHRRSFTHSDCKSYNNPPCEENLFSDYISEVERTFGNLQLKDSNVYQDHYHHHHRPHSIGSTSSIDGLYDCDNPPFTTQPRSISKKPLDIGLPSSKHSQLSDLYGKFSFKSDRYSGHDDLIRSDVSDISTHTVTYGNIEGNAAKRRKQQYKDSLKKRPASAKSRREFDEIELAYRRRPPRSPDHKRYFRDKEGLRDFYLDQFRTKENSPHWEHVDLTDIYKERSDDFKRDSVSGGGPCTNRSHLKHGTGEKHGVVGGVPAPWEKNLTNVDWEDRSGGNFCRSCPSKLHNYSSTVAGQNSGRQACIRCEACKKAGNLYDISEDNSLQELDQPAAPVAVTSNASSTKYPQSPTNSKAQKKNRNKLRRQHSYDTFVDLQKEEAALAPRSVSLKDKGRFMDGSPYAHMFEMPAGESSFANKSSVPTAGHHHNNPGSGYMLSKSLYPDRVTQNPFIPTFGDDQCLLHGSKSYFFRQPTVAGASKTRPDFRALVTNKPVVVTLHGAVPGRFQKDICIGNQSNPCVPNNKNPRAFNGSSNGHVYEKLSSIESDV

[6] = biological target: Glutamate receptor ionotropic, NMDA 2B (Mus musculus) (UniProt Q01097); experiment: as §1, with “at 50” for “at 6”; assay type: functional, cell-based; design: scale not given: the % may be the effect or the level left; conditions: Pyramidal neuron
[7] = biological target: Glutamate receptor ionotropic, NMDA 2B (Rattus norvegicus) (UniProt Q00960); experiment: as §1, with “Wistar rat” for “FVB mouse”, “100 nM” for “6 uM”; assay type: functional, cell-based; design: scale not given: the % may be the effect or the level left; conditions: Pyramidal neuron
[8] = biological target: Glutamate receptor ionotropic, NMDA 2B (Mus musculus) (UniProt Q01097); experiment: as §1, with “100 nM” for “6 uM”; assay type: functional, cell-based; design: scale not given: the % may be the effect or the level left; conditions: Pyramidal neuron

Sequence of Glutamate receptor ionotropic, NMDA 2B (Rattus norvegicus) (Q00960 27-1482 limits assumed): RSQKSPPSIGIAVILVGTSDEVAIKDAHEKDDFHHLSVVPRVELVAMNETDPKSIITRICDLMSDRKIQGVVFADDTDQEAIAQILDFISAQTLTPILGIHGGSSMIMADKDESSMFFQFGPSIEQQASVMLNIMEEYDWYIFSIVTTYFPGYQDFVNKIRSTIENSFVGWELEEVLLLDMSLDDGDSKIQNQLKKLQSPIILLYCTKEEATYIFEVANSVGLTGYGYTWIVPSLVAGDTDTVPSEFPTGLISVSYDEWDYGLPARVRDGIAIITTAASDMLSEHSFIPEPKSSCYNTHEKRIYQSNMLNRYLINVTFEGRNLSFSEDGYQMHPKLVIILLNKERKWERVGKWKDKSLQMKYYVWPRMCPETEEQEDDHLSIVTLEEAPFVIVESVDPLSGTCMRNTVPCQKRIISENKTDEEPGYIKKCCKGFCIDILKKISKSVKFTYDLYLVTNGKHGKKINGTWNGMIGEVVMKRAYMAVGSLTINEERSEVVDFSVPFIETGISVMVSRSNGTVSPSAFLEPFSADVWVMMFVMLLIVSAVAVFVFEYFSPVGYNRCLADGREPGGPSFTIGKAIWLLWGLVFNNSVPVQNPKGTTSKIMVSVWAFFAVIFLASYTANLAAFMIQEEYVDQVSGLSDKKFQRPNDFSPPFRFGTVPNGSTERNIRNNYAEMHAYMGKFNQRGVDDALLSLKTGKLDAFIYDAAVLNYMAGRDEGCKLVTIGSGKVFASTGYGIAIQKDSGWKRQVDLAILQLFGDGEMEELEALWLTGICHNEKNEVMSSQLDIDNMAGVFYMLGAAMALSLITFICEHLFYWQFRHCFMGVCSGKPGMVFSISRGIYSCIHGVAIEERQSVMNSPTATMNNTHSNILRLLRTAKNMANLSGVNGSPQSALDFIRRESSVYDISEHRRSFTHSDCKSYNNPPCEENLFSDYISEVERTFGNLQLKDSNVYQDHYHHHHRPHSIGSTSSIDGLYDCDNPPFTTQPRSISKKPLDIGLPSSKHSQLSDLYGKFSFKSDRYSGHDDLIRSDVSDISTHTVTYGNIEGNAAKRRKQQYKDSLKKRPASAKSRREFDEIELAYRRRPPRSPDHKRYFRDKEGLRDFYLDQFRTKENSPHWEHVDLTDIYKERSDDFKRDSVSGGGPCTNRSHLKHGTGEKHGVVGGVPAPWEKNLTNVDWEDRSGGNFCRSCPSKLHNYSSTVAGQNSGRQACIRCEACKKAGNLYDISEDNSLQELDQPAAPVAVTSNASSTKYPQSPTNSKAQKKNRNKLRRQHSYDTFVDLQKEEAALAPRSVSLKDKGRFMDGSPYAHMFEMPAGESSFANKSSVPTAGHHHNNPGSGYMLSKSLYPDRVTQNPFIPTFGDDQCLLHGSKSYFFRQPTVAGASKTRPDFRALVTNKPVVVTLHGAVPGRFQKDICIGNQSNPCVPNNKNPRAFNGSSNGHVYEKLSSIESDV

CS(=O)(=O)Nc1ccc2[nH]cc(C(=O)C(=O)N3CCC(Cc4ccccc4)CC3)c2c1
inhibition [1]: 42%

C[C@@H](CN1CCC(Cc2ccccc2)CC1)[C@@H](O)c1ccc(O)cc1
IC50 [2]: 17 nM | Activity [3]: 29%

O=C(CN1CCC(Cc2ccccc2)CC1)c1c[nH]c2cc(O)ccc12
pKa [4]: 9.63

Nc1ccc2[nH]cc(C(=O)C(=O)N3CCC(Cc4ccccc4)CC3)c2c1
inhibition [1]: 40%

Nc1ccc2c(C(=O)CN3CCC(Cc4ccccc4)CC3)c[nH]c2c1
IC50 [5]: 2270 nM

CS(=O)(=O)Nc1ccc2c(C(=O)C(=O)N3CCC(Cc4ccccc4)CC3)c[nH]c2c1
IC50 [5]: 63 nM

Nc1ccc2[nH]cc(C(=O)CN3CCC(Cc4ccccc4)CC3)c2c1
IC50 [5]: 1180 nM

N[C@H](CCCP(=O)(O)O)C(=O)O
Activity [6]: 28%

CS(=O)(=O)Nc1ccc2c(C(=O)CN3CCC(Cc4ccccc4)CC3)c[nH]c2c1
pKa [4]: 9.97 | Activity [7]: 50% | Activity [8]: 23.3% | IC50 [5]: 8.9 nM

CS(=O)(=O)Nc1ccc2[nH]cc(C(=O)CN3CCC(Cc4ccccc4)CC3)c2c1
IC50 [5]: 320 nM

Nc1ccc2c(C(=O)C(=O)N3CCC(Cc4ccccc4)CC3)c[nH]c2c1
inhibition [1]: 32%
